From patent publication US20220356170A1, “SREBP INHIBITOR COMPRISING A THIOPHENE CENTRAL RING” (Capulus Therapeutics, LLC, priority 2019, published 2022)

Tests used:
Test in all cases: Cancer cell growth inhibition, Sulforhodamine B
Assay type in all cases: cell-based
[1] = tested on: A204; settings: Homo sapiens; A204 (muscle), 72 hr; Responder Cell Lines
Experimental: (§1) The ability of select compounds to inhibit cell growth in various cancer cell lines are evaluated. […] The cell lines shown in Table 5 have reduced growth by at least 50% at 10 uM or lower over 72 hr treatment in growth media. The cell lines shown in Table 6 have reduced growth by at least 50% with an IC50 greater than 10 uM.
(§2) Six 10-fold compound dilutions are prepared in DMSO (e.g. 10 mM, 1 mM, 100 uM, 10 uM, 1 uM, and 0.1 uM). Single data points are acquired for each concentration. The final concentration of DMSO is 0.1%. The duration of the treatment is 72 hr. Growth inhibition is measured using Sulforhodamine B in a protein staining assay. Activity of the agents is determined by evaluation the following parameters: IC50, GI50, IC10, TGI, LC50, IC90, and GI90 (where these values can be calculated).

[2] = tested on: PC3; settings: Homo sapiens, PC-3; PC3 (prostate), 72 hr; Non-Responder Cell Lines with IC50 >10 uM or Not Determined
Experimental: as §1, §2

[3] = tested on: SU-DHL-10; settings: Homo sapiens, SU-DHL10; SU-DHL-10 (hematological), 72 hr; Non-Responder Cell Lines with IC50 >10 uM or Not Determined
Experimental: as §1, §2

[4] = tested on: U2OS; settings: Homo sapiens; U2OS (bone), 72 hr; Non-Responder Cell Lines with IC50 >10 uM or Not Determined
Experimental: as §1, §2

[5] = tested on: PBMC; settings: PBMC (hematological), 72 hr; Non-Responder Cell Lines with IC50 >10 uM or Not Determined
Experimental: as §1, §2

[6] = tested on: BT20; settings: Homo sapiens, BT-20; BT20 (breast), 72 hr; Non-Responder Cell Lines with IC50 >10 uM or Not Determined
Experimental: as §1, §2

[7] = tested on: NCIH292; settings: Homo sapiens, NCI-H292; NCIH292 (lung), 72 hr; Non-Responder Cell Lines with IC50 >10 uM or Not Determined
Experimental: as §1, §2

[8] = tested on: NCIH460; settings: Homo sapiens, NCI-H460; NCIH460 (lung), 72 hr; Non-Responder Cell Lines with IC50 >10 uM or Not Determined
Experimental: as §1, §2

[9] = tested on: SKNAS; settings: Homo sapiens, SK-N-AS; SKNAS (brain), 72 hr; Non-Responder Cell Lines with IC50 >10 uM or Not Determined
Experimental: as §1, §2

[10] = tested on: SKHEP1; settings: Homo sapiens, SK-HEP1, 72 h, SKHEP1 (liver)
Experimental: as §1, §2

[11] = tested on: U87MG; settings: Homo sapiens, U-87 MG; U87MG (brain), 72 hr; Non-Responder Cell Lines with IC50 >10 uM or Not Determined
Experimental: as §1, §2

[12] = tested on: HEK293; settings: Homo sapiens; HEK293 (kidney), 72 hr; Responder Cell Lines
Experimental: as §1, §2

[13] = tested on: MG63; settings: Homo sapiens, MG-63; MG63 (bone), 72 hr; Non-Responder Cell Lines with IC50 >10 uM or Not Determined
Experimental: as §1, §2

[14] = tested on: SKBR3; settings: Homo sapiens, SK-BR-3, 72 h, SKBR3 (breast)
Experimental: as §1, §2

[15] = tested on: HL-60; settings: Homo sapiens; HL-60 (hematological), 72 hr; Responder Cell Lines
Experimental: as §1, §2

[16] = tested on: SKMEL5; settings: Homo sapiens, SK-MEL-5, 72 h, SKMEL5 (skin)
Experimental: as §1, §2

[17] = tested on: T24; settings: Homo sapiens, T-24; T24 (bladder), 72 hr; Non-Responder Cell Lines with IC50 >10 uM or Not Determined
Experimental: as §1, §2

[18] = tested on: JAR; settings: JAR (placenta), 72 hr; Responder Cell Lines
Experimental: as §1, §2

[19] = tested on: SKLMS1; settings: Homo sapiens, SK-LMS-1; SKLMS1 (uterus), 72 hr; Non-Responder Cell Lines with IC50 >10 uM or Not Determined
Experimental: as §1, §2

[20] = tested on: CACO2; settings: Homo sapiens, Caco-2; CACO2 (colon), 72 hr; Responder Cell Lines
Experimental: as §1, §2

[21] = tested on: MDAMB468; settings: Homo sapiens, MDA-MB-468, 72 h, MDAMB468 (breast)
Experimental: as §1, §2

[22] = tested on: HCT15; settings: Homo sapiens, HCT-15; HCT15 (colon), 72 hr; Responder Cell Lines
Experimental: as §1, §2

[23] = tested on: MCF7; settings: Homo sapiens; MCF7 (breast), 72 hr; Responder Cell Lines
Experimental: as §1, §2

[24] = tested on: MV4-11; settings: Homo sapiens, MV4-11, 72 h, MV4-11 (hematological)
Experimental: as §1, §2

[25] = Non-Responder Cell Lines with IC50 >10 uM or Not Determined

## CC(C)(O)c1cc(-c2csc(-c3ccc(C(=O)N4CCC(O)CC4)cc3Cl)c2)ccn1 [Compound 1, (3-chloro-4-(4-(2-(2-hydroxypropan-2-yl)pyridin-4-yl)thiophen-2-yl)phenyl)(4-hydroxypiperidin-1-yl)methanone]
[1]
  IC50: < 10 µM
[2]
  IC50: > 10 µM
[3]
  IC50: > 10 µM
[4]
  IC50: > 10 µM
[5]
  IC50: > 10 µM
[6]
  IC50: > 10 µM
[7]
  IC50: > 10 µM
[8]
  IC50: > 10 µM
[9]
  IC50: > 10 µM
[10]; [25]
  IC50: > 10 µM
[10]; Responder Cell Lines
  IC50: < 10 µM
[11]
  IC50: > 10 µM
[12]
  IC50: < 10 µM
[13]
  IC50: > 10 µM
[14]; [25]
  IC50: > 10 µM
[14]; Responder Cell Lines
  IC50: < 10 µM
[15]
  IC50: < 10 µM
[16]; [25]
  IC50: > 10 µM
[16]; Responder Cell Lines
  IC50: < 10 µM
[17]
  IC50: > 10 µM
[18]
  IC50: < 10 µM
[19]
  IC50: > 10 µM
[20]
  IC50: < 10 µM
[21]; [25]
  IC50: > 10 µM
[21]; Responder Cell Lines
  IC50: < 10 µM
[22]
  IC50: < 10 µM
[23]
  IC50: < 10 µM
[24]; [25]
  IC50: > 10 µM
[24]; Responder Cell Lines
  IC50: < 10 µM
